Key:
Digitaria sanguinalis = test: Weed spectrum, greenhouse pot test; type: in vivo; details: two weeks after application
From the text: (§1) To a rectangular plastic pot (surface area of 300 cm^2) in which sandy loam and mixed top soil (Boo-Nong Top Soil No. 3, for horticultural use) are filled in 1:1 ratio, eight different kinds of weed seeds including Poa annua and Digitaria sanguinalis as poaceae weed, Cyperus amuricus as cyperaceae weeds and Trifolium repens, Kummerowia striata, fleabane, Veronica officinalis and Portulaca oleracea as broadleaf weeds were sewn (50 to 100 seeds per each weed). These weeds are representative examples of the weeds which typically thrive in a turf grass field.
(§2) The pot was kept in a greenhouse which was maintained at 25˜30° C. for daytime and 15˜25° C. for nighttime, respectively, and irrigation was carried out regularly. Fourteen days after seeding, when the turf grass and the weeds reached approximately at three-leaf stage, the weed seeds were again sewn in separate two pots or “Test chemical” and “Control chemical” were applied in the same manner as the method described above. In this regard, when plants were cultivated for two weeks and then the chemical application was carried out, it is designated as “post-emergence” treatment. On the other than, when the seeding was carried right before the chemical application, it is designated as “pre-emergence” treatment. Preparation of a chemical solution, application method, etc. are the same as above described for evaluation of turf grass selectivity. Two weeks after the chemical application, efficacy of the chemicals for each type of the weeds was evaluated (visual evaluation) based on 0 to 100 scale (i.e., 0 indicates no efficacy and 100 indicates complete weed control).

Veronica officinalis = test: Weed spectrum, greenhouse pot test; type: in vivo; details: two weeks after application
From the text: as §1, §2

Bentgrass = test: Turf grass selectivity, greenhouse pot test; type: in vivo, Agrostris palustris
From the text: (§3) Turf mats of Zoysia grass, bentgrass, Kentucky bluegrass, or perennial rye grass known as cool season turfgrass or western grass were purchased and cut into a piece having 10 cm×20 cm size. Then, each piece was transplanted in a rectangular plastic pot (surface area of 300 cm^2) in which sandy loam and mixed top soil (Boo-Nong Top Soil No. 3, for horticultural use) are filled in 1:1 ratio. After the transplantation, the grasses were cut once a week to maintain the blade height at 0.5-1.0 cm and cultivated for one month in a green house of which temperature was kept at 25˜30° C. for daytime and 15˜25° C. for nighttime, respectively. Then, the ‘test chemical’ of the above Examples 1 and 2 or ‘control chemical’ was applied thereto in an amount of 400, 200, 100, 50, 25, 12, 6, 3 g ai/ha. As a “control chemical”, pyrazolsulfuron ethyl wettable agent (manufactured by Dongbu Fine Chemicals; herein after, referred to as ‘control chemical No. 1’) and flazasulfuron (manufactured by Dongbu HiTek; herein after, referred to as ‘control chemical No. 2’), both sulfonylurea herbicides for a turf grass, were used. Application was carried out by using a track sprayer (R&D Sprayer, USA) equipped with Teejet 8002 nozzle (Spraying Systems Co., USA), and the application amount was adjusted to 2,000 L/ha, which is a typical application amount for a golf course in Korea. Application solution was prepared by diluting the “test chemical” or the “control chemical” with tap water. […] The test was repeated three times in a random arrangement and the results are given in average value of each test (see Table 2 below).

Perennial rye grass = test: Turf grass selectivity, greenhouse pot test; type: in vivo
From the text: as §3

Zoysia japonica = test: Turf grass selectivity, greenhouse pot test; type: in vivo; details: Zoysia japonica
From the text: as §3

Dandelion = test: Weed spectrum, greenhouse pot test; type: in vivo; details: two weeks after application
Kentucky bluegrass = test: Turf grass selectivity, greenhouse pot test; type: in vivo, Poa pratensis
From the text: as §3

Cc1cc(C)nc(NC(=O)NS(=O)(=O)c2ccccc2C(O)C(C)F)n1 (stereo not shown) [Example 1]
efficacy (0-100 scale) (Digitaria sanguinalis; Post-emergence, 12 g ai/ha): 60
efficacy (0-100 scale) (Digitaria sanguinalis; Post-emergence, 25 g ai/ha): 70
efficacy (0-100 scale) (Digitaria sanguinalis; Post-emergence, 50 g ai/ha): 90
efficacy (0-100 scale) (Digitaria sanguinalis; Post-emergence, 100 g ai/ha): 100
efficacy (0-100 scale) (Digitaria sanguinalis; Pre-emergence, 12 g ai/ha): 60
efficacy (0-100 scale) (Digitaria sanguinalis; Pre-emergence, 25 g ai/ha): 85
efficacy (0-100 scale) (Digitaria sanguinalis; Pre-emergence, 50 g ai/ha): 100
efficacy (0-100 scale) (Digitaria sanguinalis; Pre-emergence, 100 g ai/ha): 100
efficacy (0-100 scale) (Veronica officinalis; Post-emergence, 12 g ai/ha): 20
efficacy (0-100 scale) (Veronica officinalis; Post-emergence, 25 g ai/ha): 20
efficacy (0-100 scale) (Veronica officinalis; Post-emergence, 50 g ai/ha): 20
efficacy (0-100 scale) (Veronica officinalis; Post-emergence, 100 g ai/ha): 20
efficacy (0-100 scale) (Veronica officinalis; Pre-emergence, 12 g ai/ha): 30
efficacy (0-100 scale) (Veronica officinalis; Pre-emergence, 25 g ai/ha): 30
efficacy (0-100 scale) (Veronica officinalis; Pre-emergence, 50 g ai/ha): 40
efficacy (0-100 scale) (Veronica officinalis; Pre-emergence, 100 g ai/ha): 50
phytotoxicity (visual assessment 0-10) (Bentgrass; 3 g ai/ha, 2 weeks): 0
phytotoxicity (visual assessment 0-10) (Bentgrass; 3 g ai/ha, 4 weeks): 0
phytotoxicity (visual assessment 0-10) (Bentgrass; 6 g ai/ha, 2 weeks): 0
phytotoxicity (visual assessment 0-10) (Bentgrass; 6 g ai/ha, 4 weeks): 0
phytotoxicity (visual assessment 0-10) (Bentgrass; 12 g ai/ha, 2 weeks): 0
phytotoxicity (visual assessment 0-10) (Bentgrass; 12 g ai/ha, 4 weeks): 0
phytotoxicity (visual assessment 0-10) (Bentgrass; 25 g ai/ha, 2 weeks): 0
phytotoxicity (visual assessment 0-10) (Bentgrass; 25 g ai/ha, 4 weeks): 0
phytotoxicity (visual assessment 0-10) (Bentgrass; 50 g ai/ha, 2 weeks): 0
phytotoxicity (visual assessment 0-10) (Bentgrass; 50 g ai/ha, 4 weeks): 0
phytotoxicity (visual assessment 0-10) (Bentgrass; 100 g ai/ha, 2 weeks): 1
phytotoxicity (visual assessment 0-10) (Bentgrass; 100 g ai/ha, 4 weeks): 0
phytotoxicity (visual assessment 0-10) (Bentgrass; 200 g ai/ha, 2 weeks): 2
phytotoxicity (visual assessment 0-10) (Bentgrass; 200 g ai/ha, 4 weeks): 1
phytotoxicity (visual assessment 0-10) (Bentgrass; 400 g ai/ha, 2 weeks): 3
phytotoxicity (visual assessment 0-10) (Bentgrass; 400 g ai/ha, 4 weeks): 2
phytotoxicity (visual assessment 0-10) (Perennial rye grass; 3 g ai/ha, 2 weeks): 0
phytotoxicity (visual assessment 0-10) (Perennial rye grass; 3 g ai/ha, 4 weeks): 0
phytotoxicity (visual assessment 0-10) (Perennial rye grass; 6 g ai/ha, 2 weeks): 0
phytotoxicity (visual assessment 0-10) (Perennial rye grass; 6 g ai/ha, 4 weeks): 0
phytotoxicity (visual assessment 0-10) (Perennial rye grass; 12 g ai/ha, 2 weeks): 0
phytotoxicity (visual assessment 0-10) (Perennial rye grass; 12 g ai/ha, 4 weeks): 0
phytotoxicity (visual assessment 0-10) (Perennial rye grass; 25 g ai/ha, 2 weeks): 0
phytotoxicity (visual assessment 0-10) (Perennial rye grass; 25 g ai/ha, 4 weeks): 0
phytotoxicity (visual assessment 0-10) (Perennial rye grass; 50 g ai/ha, 2 weeks): 0
phytotoxicity (visual assessment 0-10) (Perennial rye grass; 50 g ai/ha, 4 weeks): 0
phytotoxicity (visual assessment 0-10) (Perennial rye grass; 100 g ai/ha, 2 weeks): 0
phytotoxicity (visual assessment 0-10) (Perennial rye grass; 100 g ai/ha, 4 weeks): 0
phytotoxicity (visual assessment 0-10) (Perennial rye grass; 200 g ai/ha, 2 weeks): 0
phytotoxicity (visual assessment 0-10) (Perennial rye grass; 200 g ai/ha, 4 weeks): 0
phytotoxicity (visual assessment 0-10) (Perennial rye grass; 400 g ai/ha, 2 weeks): 1
phytotoxicity (visual assessment 0-10) (Perennial rye grass; 400 g ai/ha, 4 weeks): 0
phytotoxicity (visual assessment 0-10) (Zoysia japonica; 3 g ai/ha, 2 weeks): 0
phytotoxicity (visual assessment 0-10) (Zoysia japonica; 3 g ai/ha, 4 weeks): 0
phytotoxicity (visual assessment 0-10) (Zoysia japonica; 6 g ai/ha, 2 weeks): 0
phytotoxicity (visual assessment 0-10) (Zoysia japonica; 6 g ai/ha, 4 weeks): 0
phytotoxicity (visual assessment 0-10) (Zoysia japonica; 12 g ai/ha, 2 weeks): 0
phytotoxicity (visual assessment 0-10) (Zoysia japonica; 12 g ai/ha, 4 weeks): 0
phytotoxicity (visual assessment 0-10) (Zoysia japonica; 25 g ai/ha, 2 weeks): 0
phytotoxicity (visual assessment 0-10) (Zoysia japonica; 25 g ai/ha, 4 weeks): 0
phytotoxicity (visual assessment 0-10) (Zoysia japonica; 50 g ai/ha, 2 weeks): 0
phytotoxicity (visual assessment 0-10) (Zoysia japonica; 50 g ai/ha, 4 weeks): 0
phytotoxicity (visual assessment 0-10) (Zoysia japonica; 100 g ai/ha, 2 weeks): 0
phytotoxicity (visual assessment 0-10) (Zoysia japonica; 100 g ai/ha, 4 weeks): 0
phytotoxicity (visual assessment 0-10) (Zoysia japonica; 200 g ai/ha, 2 weeks): 0
phytotoxicity (visual assessment 0-10) (Zoysia japonica; 200 g ai/ha, 4 weeks): 0
phytotoxicity (visual assessment 0-10) (Zoysia japonica; 400 g ai/ha, 2 weeks): 0
phytotoxicity (visual assessment 0-10) (Zoysia japonica; 400 g ai/ha, 4 weeks): 0
efficacy (0-100 scale) (Dandelion; Post-emergence, 12 g ai/ha): 90
efficacy (0-100 scale) (Dandelion; Post-emergence, 25 g ai/ha): 90
efficacy (0-100 scale) (Dandelion; Post-emergence, 50 g ai/ha): 100
efficacy (0-100 scale) (Dandelion; Post-emergence, 100 g ai/ha): 100
efficacy (0-100 scale) (Dandelion; Pre-emergence, 12 g ai/ha): 90
efficacy (0-100 scale) (Dandelion; Pre-emergence, 25 g ai/ha): 90
efficacy (0-100 scale) (Dandelion; Pre-emergence, 50 g ai/ha): 100
efficacy (0-100 scale) (Dandelion; Pre-emergence, 100 g ai/ha): 100
phytotoxicity (visual assessment 0-10) (Kentucky bluegrass; 3 g ai/ha, 2 weeks): 0
phytotoxicity (visual assessment 0-10) (Kentucky bluegrass; 3 g ai/ha, 4 weeks): 0
phytotoxicity (visual assessment 0-10) (Kentucky bluegrass; 6 g ai/ha, 2 weeks): 0
phytotoxicity (visual assessment 0-10) (Kentucky bluegrass; 6 g ai/ha, 4 weeks): 0
phytotoxicity (visual assessment 0-10) (Kentucky bluegrass; 12 g ai/ha, 2 weeks): 0
phytotoxicity (visual assessment 0-10) (Kentucky bluegrass; 12 g ai/ha, 4 weeks): 0
phytotoxicity (visual assessment 0-10) (Kentucky bluegrass; 25 g ai/ha, 2 weeks): 0
phytotoxicity (visual assessment 0-10) (Kentucky bluegrass; 25 g ai/ha, 4 weeks): 0
phytotoxicity (visual assessment 0-10) (Kentucky bluegrass; 50 g ai/ha, 2 weeks): 0
phytotoxicity (visual assessment 0-10) (Kentucky bluegrass; 50 g ai/ha, 4 weeks): 0
phytotoxicity (visual assessment 0-10) (Kentucky bluegrass; 100 g ai/ha, 2 weeks): 0
phytotoxicity (visual assessment 0-10) (Kentucky bluegrass; 100 g ai/ha, 4 weeks): 0
phytotoxicity (visual assessment 0-10) (Kentucky bluegrass; 200 g ai/ha, 2 weeks): 1
phytotoxicity (visual assessment 0-10) (Kentucky bluegrass; 200 g ai/ha, 4 weeks): 0
phytotoxicity (visual assessment 0-10) (Kentucky bluegrass; 400 g ai/ha, 2 weeks): 2
phytotoxicity (visual assessment 0-10) (Kentucky bluegrass; 400 g ai/ha, 4 weeks): 1
